Test results from the NIST ThermoML archive (doi:10.1016/j.jct.2006.01.012).

Test: xn = mol fraction of the nth substance listed
Conditions: Liquid; for viscosity: Capillary tube (Ostwald / Ubbelohde) method; for mass density: isochoric method

CCCCCCCC [octane] + CCCCCCC
Conditions | mass density [kg/m3] | viscosity [mPa·s]
373.19 K, 5000 kPa, x2 = 0.7906 | – | 0.217
373.19 K, 10000 kPa, x2 = 0.7906 | – | 0.23
373.51 K, 5000 kPa, x2 = 0.2808 | – | 0.241
373.51 K, 10000 kPa, x2 = 0.2808 | – | 0.255
373.97 K, 5000 kPa, x2 = 0.5427 | – | 0.227
373.97 K, 10000 kPa, x2 = 0.5427 | – | 0.24
374.79 K, 3256 kPa, x2 = 0.2808 | 634.7 | –
374.79 K, 8081 kPa, x2 = 0.2808 | 641.5 | –
374.79 K, 9316 kPa, x2 = 0.2808 | 643.1 | –
380.43 K, 3110 kPa, x2 = 0.5427 | 623.5 | –
380.43 K, 5712 kPa, x2 = 0.5427 | 628.4 | –
380.43 K, 8743 kPa, x2 = 0.5427 | 633.1 | –
380.43 K, 10230 kPa, x2 = 0.5427 | 635.1 | –
382.99 K, 5000 kPa, x2 = 0.2808 | – | 0.223
382.99 K, 10000 kPa, x2 = 0.2808 | – | 0.237
383.18 K, 5000 kPa, x2 = 0.5427 | – | 0.212
383.18 K, 10000 kPa, x2 = 0.5427 | – | 0.224
384.55 K, 5000 kPa, x2 = 0.7906 | – | 0.198
384.55 K, 10000 kPa, x2 = 0.7906 | – | 0.211
386.91 K, 3743 kPa, x2 = 0.7906 | 612.4 | –
386.91 K, 5902 kPa, x2 = 0.7906 | 616.6 | –
386.91 K, 8793 kPa, x2 = 0.7906 | 621.6 | –
386.91 K, 10710 kPa, x2 = 0.7906 | 624.7 | –
393.49 K, 5000 kPa, x2 = 0.2808 | – | 0.206
393.49 K, 10000 kPa, x2 = 0.2808 | – | 0.22
394.51 K, 5000 kPa, x2 = 0.5427 | – | 0.195
394.51 K, 10000 kPa, x2 = 0.5427 | – | 0.206
395.52 K, 5000 kPa, x2 = 0.7906 | – | 0.183
395.52 K, 10000 kPa, x2 = 0.7906 | – | 0.195
401.28 K, 4100 kPa, x2 = 0.7906 | 601.1 | –
401.28 K, 6833 kPa, x2 = 0.7906 | 606.2 | –
401.28 K, 9204 kPa, x2 = 0.7906 | 610.3 | –
401.28 K, 10510 kPa, x2 = 0.7906 | 612.5 | –
401.4 K, 4751 kPa, x2 = 0.2808 | 614.2 | –
401.4 K, 7120 kPa, x2 = 0.2808 | 618 | –
401.4 K, 9310 kPa, x2 = 0.2808 | 621.7 | –
403.23 K, 5000 kPa, x2 = 0.5427 | – | 0.183
403.23 K, 10000 kPa, x2 = 0.5427 | – | 0.193
407.72 K, 5000 kPa, x2 = 0.7906 | – | 0.167
407.72 K, 10000 kPa, x2 = 0.7906 | – | 0.18
409.59 K, 3334 kPa, x2 = 0.5427 | 598 | –
409.59 K, 7257 kPa, x2 = 0.5427 | 606.1 | –
409.59 K, 9316 kPa, x2 = 0.5427 | 609.6 | –
413.6 K, 5000 kPa, x2 = 0.2808 | – | 0.178
413.6 K, 10000 kPa, x2 = 0.2808 | – | 0.191
415.96 K, 5000 kPa, x2 = 0.5427 | – | 0.167
415.96 K, 10000 kPa, x2 = 0.5427 | – | 0.177
423.23 K, 3334 kPa, x2 = 0.7906 | 578.1 | –
423.23 K, 7433 kPa, x2 = 0.7906 | 587.6 | –
423.23 K, 9708 kPa, x2 = 0.7906 | 592.4 | –
424.45 K, 5000 kPa, x2 = 0.7906 | – | 0.149
424.45 K, 10000 kPa, x2 = 0.7906 | – | 0.16
424.48 K, 4903 kPa, x2 = 0.5427 | 588.7 | –
424.48 K, 7108 kPa, x2 = 0.5427 | 592.8 | –
424.48 K, 9298 kPa, x2 = 0.5427 | 597.1 | –
424.55 K, 5000 kPa, x2 = 0.5427 | – | 0.158
424.55 K, 10000 kPa, x2 = 0.5427 | – | 0.167
429.34 K, 3511 kPa, x2 = 0.2808 | 585.6 | –
429.34 K, 8237 kPa, x2 = 0.2808 | 595.9 | –
429.34 K, 9630 kPa, x2 = 0.2808 | 598.7 | –
432.62 K, 5000 kPa, x2 = 0.2808 | – | 0.156
432.62 K, 10000 kPa, x2 = 0.2808 | – | 0.168
433.62 K, 5000 kPa, x2 = 0.5427 | – | 0.148
433.62 K, 10000 kPa, x2 = 0.5427 | – | 0.158
435.62 K, 5000 kPa, x2 = 0.7906 | – | 0.138
435.62 K, 10000 kPa, x2 = 0.7906 | – | 0.149
447.3 K, 4808 kPa, x2 = 0.5427 | 566 | –
447.3 K, 6304 kPa, x2 = 0.5427 | 569.6 | –
447.3 K, 9463 kPa, x2 = 0.5427 | 576.6 | –
451.28 K, 3900 kPa, x2 = 0.2808 | 565.6 | –
451.28 K, 5302 kPa, x2 = 0.2808 | 569 | –
451.28 K, 8131 kPa, x2 = 0.2808 | 576 | –
451.28 K, 9621 kPa, x2 = 0.2808 | 579.7 | –
452.73 K, 5000 kPa, x2 = 0.5427 | – | 0.129
452.73 K, 10000 kPa, x2 = 0.5427 | – | 0.14
455.3 K, 5000 kPa, x2 = 0.7906 | – | 0.12
455.3 K, 10000 kPa, x2 = 0.7906 | – | 0.132
455.63 K, 5000 kPa, x2 = 0.2808 | – | 0.133
455.63 K, 10000 kPa, x2 = 0.2808 | – | 0.145
463.18 K, 5000 kPa, x2 = 0.5427 | – | 0.12
463.18 K, 10000 kPa, x2 = 0.5427 | – | 0.131
466.55 K, 4570 kPa, x2 = 0.7906 | 535.1 | –
466.55 K, 7593 kPa, x2 = 0.7906 | 546.3 | –
466.55 K, 9885 kPa, x2 = 0.7906 | 553.4 | –
466.78 K, 3177 kPa, x2 = 0.5427 | 538.3 | –
466.78 K, 8649 kPa, x2 = 0.5427 | 556.8 | –
466.78 K, 9963 kPa, x2 = 0.5427 | 560.6 | –
472.52 K, 5000 kPa, x2 = 0.7906 | – | 0.107
472.52 K, 10000 kPa, x2 = 0.7906 | – | 0.118
473.1 K, 5000 kPa, x2 = 0.5427 | – | 0.112
473.1 K, 10000 kPa, x2 = 0.5427 | – | 0.123
473.46 K, 5000 kPa, x2 = 0.2808 | – | 0.118
473.46 K, 10000 kPa, x2 = 0.2808 | – | 0.13
475.85 K, 4354 kPa, x2 = 0.2808 | 539.5 | –
475.85 K, 8492 kPa, x2 = 0.2808 | 553.8 | –
475.85 K, 10120 kPa, x2 = 0.2808 | 558.1 | –
483.92 K, 4703 kPa, x2 = 0.5427 | 524.2 | –
483.92 K, 7131 kPa, x2 = 0.5427 | 533.5 | –
483.92 K, 9423 kPa, x2 = 0.5427 | 541.6 | –
494.74 K, 4250 kPa, x2 = 0.2808 | 515.8 | –
494.74 K, 6032 kPa, x2 = 0.2808 | 524.3 | –
494.74 K, 8734 kPa, x2 = 0.2808 | 535.5 | –
494.74 K, 9220 kPa, x2 = 0.2808 | 537.5 | –
505.34 K, 5217 kPa, x2 = 0.2808 | 507.7 | –
505.34 K, 8904 kPa, x2 = 0.2808 | 525.4 | –
505.34 K, 9807 kPa, x2 = 0.2808 | 528.4 | –
506 K, 5099 kPa, x2 = 0.7906 | 487.7 | –
506 K, 6982 kPa, x2 = 0.7906 | 499.4 | –
506 K, 8492 kPa, x2 = 0.7906 | 507.2 | –
506 K, 9669 kPa, x2 = 0.7906 | 512.6 | –
518.04 K, 4982 kPa, x2 = 0.5427 | 480.1 | –
518.04 K, 7512 kPa, x2 = 0.5427 | 496.2 | –
518.04 K, 8983 kPa, x2 = 0.5427 | 504.3 | –
525.5 K, 4771 kPa, x2 = 0.2808 | 475.8 | –
525.5 K, 5323 kPa, x2 = 0.2808 | 480.4 | –
525.5 K, 7331 kPa, x2 = 0.2808 | 494.9 | –
525.5 K, 9533 kPa, x2 = 0.2808 | 506.5 | –
536.57 K, 5021 kPa, x2 = 0.5427 | 449.5 | –
536.57 K, 6931 kPa, x2 = 0.5427 | 468.1 | –
536.57 K, 9621 kPa, x2 = 0.5427 | 486.1 | –
549.34 K, 5394 kPa, x2 = 0.5427 | 431.7 | –
549.34 K, 6766 kPa, x2 = 0.5427 | 449.2 | –
549.34 K, 8689 kPa, x2 = 0.5427 | 464.6 | –
549.34 K, 9708 kPa, x2 = 0.5427 | 471.9 | –
555.9 K, 4982 kPa, x2 = 0.7906 | 394.1 | –
555.9 K, 6198 kPa, x2 = 0.7906 | 416.1 | –
555.9 K, 8649 kPa, x2 = 0.7906 | 445.5 | –
555.9 K, 10240 kPa, x2 = 0.7906 | 458.1 | –
557.23 K, 5296 kPa, x2 = 0.2808 | 430.4 | –
557.23 K, 8238 kPa, x2 = 0.2808 | 461.5 | –
557.23 K, 9885 kPa, x2 = 0.2808 | 473.3 | –
557.23 K, 10790 kPa, x2 = 0.2808 | 479 | –
